Assay results reported in patent EP2305268A1, “A PHARMACEUTICAL COMPOSITION FOR TREATING DISEASE CAUSED BY IMMUNE DISTURBANCE AND THE EXTRACT FROM TUCKAHOE” (Sinphar Tian-li Pharmaceutical Co., Ltd. (Hangzhou), priority 2008, dated 2009).
Values joined by “and” are separate entries in the source; they are usually repeats but may differ in a detail not shown here. Equal values may be shown once.

Assays:
Assay type in all cases: in vivo, BALB/c mice
[1] = tested on: OVA-sensitized asthmatic mice; assay: Airway hyperresponsiveness (AHR) test, Buxco system, Penh after methacholine aerosol
Procedure: (§1) Mice in different groups were fed with a Poria extract or pure lanostane compound during the experimental period, and each mouse was subjected to an airway hyperresponsiveness test after one-month feeding, from which an important index reflecting the severe degree of the asthma of the mouse was determined. […] Further, a chemoattractant factor, Eotaxin, was an important observation factor in this example for observing whether the secretion of cytokines changed dramatically.
(§2) • (1) Experimental animal: Inbred BALB/c female mice were maintained by standard laboratory chow ad libitum. Room temperature was maintained at 19-24°C and relative humidity at 50-70%. […] Three minutes after the introduction an average value of AHR per minute was recorded. […] The value of Penh (pause of enhance) was calculated by collecting data derived from transducer (differential pressure transducer; Buxco) and preamplifier (MAX □, Buxco) in the system. The relative increase ratio of Penh was calculated as Penh% = Penhmethacholine/PenhPBS, wherein Penhmethacholine is the average value of Penh after the mice inhale 3 minutes of methacholine aerosol, and PenhPBS is the average value of Penh after the mice inhale 3 minutes of PBS aerosol. • (5) Bronchoalveolar lavage fluid (BALF) and lung histology: As all groups of mice had finished of AHR analysis, they were sacrificed on next day. […]

[2] = tested on: immune cells in BALF of OVA-sensitized mice; assay: Percentage of subpopulations of immune cells in bronchoalveolar lavage fluid (BALF), Liu's stain cell count; conditions: % of total BALF cells, mean ± SD
Procedure: as §1
• (1) Experimental animal: Inbred BALB/c female mice were maintained by standard laboratory chow ad libitum. Room temperature was maintained at 19-24°C and relative humidity at 50-70%. Animal experiments were performed according to the Guidelines for the Care and Use of Laboratory Animals, Fu-Jen University, Taiwan. […] All mice were exposed to inhalate exposure to 8 ml of 2% OVA aerosols for a period of 20 minutes by placing them in a chamber using an ultrasonic nebulizer (DeVilbiss Pulmo-Aide, 5650D, USA), after receiving the second intraperitoneal injection. • (3) Grouping of the experimental animal: The 10 groups of OVA-sensitized asthmatic mice were separated into a non-treatment asthma group (As); treatment groups with the Poria extract prepared in Example 2 and pure compounds K1, K2 and K3 (1PCE, 1K1, 1K2, 1K3, 2PCE, 2K1, 2K2, and 2K3); and the control drug group (Pred). Each mouse in the treatment group of 1PCE group received daily 0.0372 mg of the ethanol extract PCE prepared in Example 2 (1PCE). 2PCE means mice were fed with two times of the dosage of PCE (0.0744 mg) of the 1PCE group. Each mouse in the treatment groups of 1K1, 1K2 and 1K3 received daily 0.0087 mg of K1, K2 and K3, respectively. 2K1, 2K2, and 2K3 mean mice werer fed with two times of the dosage of K1, K2 and K3 (0.0174 mg) in comparison with the 1K1, 1K2 and 1 K3 groups. Each mouse of the Pred group had been administrated with 0.1 mg of Prednisolone per day for 5 continuous days before the mouse was sacrificed. Above PCE, K1, K2, K3 and Prednisolone compounds were dissolved by 95% ethanol firstly, and finally in Phosphate Buffer Solution (PBS). Each mouse was administered 0.4 mL of total volume each time by gavage. • (4) Airway hyperresponsiveness test: An airway hyperresponsiveness (AHR) value increases proportionally with the severe degree of asthma, and thus a decrease of AHR value is an important index for determining whether asthma is being released. Each mouse in all groups was subjected to the AHR test next day following the 29th day of administering in the treatment groups on which the last inhalate exposure was conducted. The AHR was tested with Buxco system (Biosystem XA; Buxco Electronics Inc. Sharon, CT, USA), wherein the mouse was placed in a chamber, and aerosol of PBS or methacholine of different concentrations (25 mg/ml, and 50 mg/ml) was introduced into the chamber by using an ultrasonic nebulizer. Three minutes after the introduction an average value of AHR per minute was recorded. […] The value of Penh (pause of enhance) was calculated by collecting data derived from transducer (differential pressure transducer; Buxco) and preamplifier (MAX □, Buxco) in the system. The relative increase ratio of Penh was calculated as Penh% = Penhmethacholine/PenhPBS, wherein Penhmethacholine is the average value of Penh after the mice inhale 3 minutes of methacholine aerosol, and PenhPBS is the average value of Penh after the mice inhale 3 minutes of PBS aerosol. • (5) Bronchoalveolar lavage fluid (BALF) and lung histology: As all groups of mice had finished of AHR analysis, they were sacrificed on next day. The lung was immediately lavaged via the trachea cannula (18 GA, angiocath, B.D.) with 1 ml of Hank's balanced salt solution (HBSS, SH30016.01, Hyclone, USA), which contained 2% fetal bovine serum (FBS) and 2 mM 2Na-EDTA for three times. About 3 ml of BALF were collected.

[3] = tested on: Eotaxin; assay: Eotaxin level in BALF by Sandwich-ELISA; conditions: mean ± SD
Procedure: as §1, §2

[4] = Pred group: 0.1 mg Prednisolone per day for 5 continuous days before sacrifice
[5] = groups 1K1, 1K2, 1K3: 0.0087 mg per mouse daily by gavage
[6] = groups 2K1, 2K2, 2K3: 0.0174 mg per mouse daily by gavage

| Structure (SMILES) | values of AHR in comparison with the As group [1, 4] | Monocyte [2, 4] [%] | Neutrophil [2, 4] [%] | values of AHR in comparison with the As group ([1]; groups 1K1, 1K3: 0.0087 mg per mouse daily by gavage, methacholine 50mg/mL) | Eosinophil [2, 5] [%] | Lymphocyte [2, 5] [%] | Monocyte [2, 5] [%] | Neutrophil [2, 5] [%] | Eosinophil [2, 6] [%] | Lymphocyte [2, 6] [%] | Monocyte [2, 6] [%] | Neutrophil [2, 6] [%] | Eotaxin [3, 5] | Eotaxin [3, 6] [pg/mL] |
| --- | --- | --- | --- | --- | --- | --- | --- | --- | --- | --- | --- | --- | --- | --- |
| C[C@]12C=CC(=O)C=C1CC[C@@H]1[C@@H]2[C@@H](O)C[C@@]2(C)[C@H]1CC[C@]2(O)C(=O)CO [Pred, Prednisolone, reference compound] | lower values of AHR but not statistically significant | 13.3±7.8 | 0.8±0.8 |  |  |  |  |  |  |  |  |  |  |  |
| C=C(CC[C@@H](C(=O)O)[C@H]1[C@H](O)C[C@@]2(C)C3=CC[C@H]4C(C)(C)C(=O)CC[C@]4(C)C3=CC[C@]12C)C(C)C [K3] |  |  |  | significantly lower values ofAHR | 11.3±7.0 | 49.8±12.8 | 38.2±8.7 | 0.8±0.9 | 9.7±3.6 | 52.1±8.1 | 37.1±5.7 | 1.1±1.1 | significantly lower levels of Eotaxin and 21.1±10.4 pg/mL | 25.1 ± 12.0 |
